Test results: US5756527A, “Imidazole derivatives useful as modulators of multi drug resistances” (Ontogen Corporation, priority 1997, dated 1998)

Legend:
CEM/VLB1000 [1] = assay: Cytotoxicity potentiation (alamar blue) of vinblastine in multidrug-resistant cells; type: cell-based; settings: midpoint of minimum and maximum cytotoxicity induced by 3-5 μg/mL vinblastine and compound, 48 h
Protocol: Multidrug-resistant cell lines are easily obtainable for in vitro determination of drug sensitization by compounds of the present invention. In vitro potentiation of antineoplastic cytotoxicity by the imidazole derivatives of the present invention was measured in both CEM/VLB1000 and SK/VLB1000 cell lines. The multidrug resistant cell lines were obtained from Dr. Victor Ling, Ontario Cancer Institute, Toronto, Canada. The CEM/VLB 1000 cell line was maintained as a suspension in minimum essential medium supplemented with 10% fetal bovine serum in a humidied atmosphere of 95% air and 5% CO2 while the SK/VLB 1000 cell line was maintained as adherent cells using the identical medium conditions as the CEM cells. The CEM/VLB 1000 cells were seeded at a density of 5×10^4 cells/well in a 96 well microtiter plate while the SK/VLB 1000 cell line was seeded at a density of 2,500 cells/well after trypsinization. Vinblastine (5 μg/mL, for the CEM cells) or Taxol (3 μg/mL, for the SK cells) and compound (0.01 to 50 μM) were added directly to the wells. After an incubation of 48 hours in presence of drug, alamar blue (B. Page et al., Int. J. Oncol. 3: 473-476, 1993) was added (10 μL to the 200 μL cell suspension) for a period of 24 hours after which the fluorescence (excitation=530 nm, emission=590 nm) was read for each well using a "CytoFluor" microtiter fluorometer plate reader. This assay measures the effective concentration of compound necessary to enhance the cytotoxicity (EC50) of vinblastine in the MDR cell line.
^1 Values presented are the midpoint (EC50) of the minimum and
maximum cytotoxicity induced by 3-5 μg/mL vinblastine and the specific
compound of the present invention.

CEM/VLB1000 [2] = assay: [3H]-vinblastine (VLB) accumulation assay; type: cell-based; settings: midpoint of minimum and maximum increase in accumulation of 3H-vinblastine (275 nM), 3 hours at 37° C.
Protocol: ^3 H-vinblastine accumulation was also measured in the CEM/VLB1000 cell line. Corning Easy-Wash 96 well plates were pretreated with PBS and 1% BSA for 60 minutes and then removed. CEM/VLB1000 cells were seeded at 2×10^5, 40 μL volume. Plates were incubated at 37° C. for 30-60 minutes prior to use. The reference reversing agent, verapamil, or the compound of the present invention was added to the well followed by addition of media containing ^3 H-vinblastine (final concentration=275nM). Plates were allowed to incubate for 3 hours at 37° C. Cells were harvested onto pretreated Wallace filtermats A (pretreated with 0.1% polyethyleneimine) using a TomTek harvester-96. After filtering, the filtermats were allowed to dry completely. Meltix B scintillant was then added to the filtermats. The filters were then placed in a 90° C. oven for approximately 3-5 minutes and then removed. Scintillant was allowed to solidify on the filtermats. Filtermats were then placed in sample bags and read on a Wallace BetaPlate scintillation counter. The effects of compounds of the present invention in the cytotoxicity potentiation assays and vinblastine (VLB) accumulation assay are given in the Table below:
^2 Values presented are the midpoint (EC50) of the minimum and
maximum increase in accumulation of ^3 Hvinblastine caused by the
specific compound of the present invention.

Structure (SMILES): CCCCN(CCCC)c1ccc(-c2[nH]c(-c3ccc(/C=C/C(=O)OC)cc3)nc2-c2ccc(NC)cc2)cc1 [Example 45, 2-[4-(trans-methylpropenoate)phenyl]-4-[(4-N,N-dibutylamino)phenyl]-5-[(4-N-methylamino)phenyl] imidazole]
- EC50 (CEM/VLB1000 [1]): 1900 nM
- EC50 (CEM/VLB1000 [2]): 10000 nM

Structure (SMILES): CNc1ccc(-c2[nH]c(-c3ccc(/C=C/C(=O)OC)cc3)nc2-c2ccc(NC(C)(C)C)cc2)cc1 [Example 48, 2-[4-(trans-methylpropenoate)phenyl]-4-[(4-N-t-butylamino)phenyl]-5-[(4-N-methylamino)phenyl] imidazole]
- EC50 (CEM/VLB1000 [1]): 240 nM
- EC50 (CEM/VLB1000 [2]): 1200 nM

Structure (SMILES): CCN(CC)c1ccc(-c2[nH]c(-c3ccc(/C=C/C(=O)OC)cc3)nc2-c2ccc(NC)cc2)cc1 [Example 40, 2-[4-(trans-methylpropenoate)phenyl]-4-[(4-N,N-diethylamino)phenyl]-5-[(4-N-methylamino)phenyl] imidazole]
- EC50 (CEM/VLB1000 [1]): 226 nM
- EC50 (CEM/VLB1000 [2]): 1100 nM

Structure (SMILES): CCOCCCc1ccc(-c2nc(-c3ccc(N(C)C)cc3)c(-c3ccc(N(C)C)cc3)[nH]2)cc1 [Example 69, 2-[4-(3-ethoxypropyl)phenyl]-4,5-bis[(4-N,N-dimethylamino)phenyl] imidazole]
- EC50 (CEM/VLB1000 [1]): 210 nM

Structure (SMILES): CCCN(C)c1ccc(-c2nc(-c3ccc(/C=C/C(=O)OC)cc3)[nH]c2-c2ccc(NC)cc2)cc1 [Example 43, 2-[4-(trans-methylpropenoate)phenyl]-4-[(4-N-methyl-N-propylamino)phenyl]-5-[(4-N-methylamino)phenyl] imidazole]
- EC50 (CEM/VLB1000 [1]): 148 nM
- EC50 (CEM/VLB1000 [2]): 2300 nM

Structure (SMILES): COC(=O)/C=C/c1cccc(-c2nc(-c3ccc(N(C)C)cc3)c(-c3ccc(N(C)C)cc3)[nH]2)c1 [Example 54, 2-[3-(trans-methylpropenoate)phenyl]-4,5-bis(4-N,N-dimethylaminophenyl) imidazole]
- EC50 (CEM/VLB1000 [1]): 256 nM
- EC50 (CEM/VLB1000 [2]): 4800 nM

Structure (SMILES): CNc1ccc(-c2[nH]c(-c3ccc(/C=C/C(=O)OC)cc3)nc2-c2ccc(N(C)C)cc2)cc1 [Example 42, 2-[4-(trans-methylpropenoate)phenyl]-4-[(4-N,N-dimethylamino)phenyl]-5-[(4-N-methylamino)phenyl] imidazole]
- EC50 (CEM/VLB1000 [1]): 170 nM
- EC50 (CEM/VLB1000 [2]): 1100 nM

Structure (SMILES): COC(=O)/C=C/c1cc(-c2nc(-c3ccc(N(C)C)cc3)c(-c3ccc(N(C)C)cc3)[nH]2)ccc1F [Example 58, 2-[4-fluoro-3-(trans-methylpropenoate)phenyl]-4,5-bis(4-N,N-dimethylaminophenyl) imidazole]
- EC50 (CEM/VLB1000 [1]): 134 nM
- EC50 (CEM/VLB1000 [2]): 2000 nM

Structure (SMILES): CCN(CC)c1ccc(-c2nc(-c3ccc(/C=C/C(=O)OC)cc3)[nH]c2-c2ccc(N(CC)CC)cc2)cc1 [Example 49, 2-[4-(trans-methylpropenoate)phenyl]-4,5-bis(4-N,N-diethylaminophenyl) imidazole]
- EC50 (CEM/VLB1000 [1]): 675 nM
- EC50 (CEM/VLB1000 [2]): 5000 nM

Structure (SMILES): CCN(CC)c1ccc(-c2nc(-c3ccc(/C=C/C(=O)OC)cc3)[nH]c2-c2ccc(N(C)C)cc2)cc1 [Example 50, 2-[4-(trans-methylpropenoate)phenyl]-4-[(4-N,N-diethylamino)phenyl]-5-[(4-N,N-dimethylamino)phenyl] imidazole]
- EC50 (CEM/VLB1000 [1]): 225 nM
- EC50 (CEM/VLB1000 [2]): 4900 nM

Structure (SMILES): CNc1ccc(-c2nc(-c3ccc(/C=C/C(=O)OC)cc3)[nH]c2-c2ccc(NC)cc2)cc1 [Example 46, 2-[4-(trans-methylpropenoate)phenyl]-4,5-bis(4-N-methylaminophenyl) imidazole]
- EC50 (CEM/VLB1000 [1]): 203 nM
- EC50 (CEM/VLB1000 [2]): 1400 nM

Structure (SMILES): COCCOc1ccc(-c2nc(-c3ccc(N(C)C)cc3)c(-c3ccc(N(C)C)cc3)[nH]2)cc1 [Example 71, 2-[4-(2-methoxyethoxy)phenyl]-4,5-bis[(4-N,N-dimethylamino)phenyl] imidazole]
- EC50 (CEM/VLB1000 [1]): 170 nM

Structure (SMILES): COC(=O)/C=C/c1cc(-c2nc(-c3ccc(N(C)C)cc3)c(-c3ccc(N(C)C)cc3)[nH]2)cc(OC)c1OC [Example 57, 2-[3,4-dimethoxy-5-(trans-methylpropenoate)phenyl]-4,5-bis(4-N,N-dimethylaminophenyl) imidazole]
- EC50 (CEM/VLB1000 [1]): 453 nM
- EC50 (CEM/VLB1000 [2]): 2800 nM

Structure (SMILES): CN(C)c1ccc(-c2nc(-c3ccc(/C=C/C(=O)OCc4ccccc4)cc3)[nH]c2-c2ccc(N(C)C)cc2)cc1 [Example 67, 2-[4-(trans-benzylpropenoate)phenyl]-4,5-bis[(4-N,N-dimethylamino)phenyl] imidazole]
- EC50 (CEM/VLB1000 [1]): 330 nM
- EC50 (CEM/VLB1000 [2]): 10500 nM

Structure (SMILES): CNc1ccc(-c2[nH]c(-c3ccc(/C=C/C(=O)OC)cc3)nc2-c2ccc(NC(C)C)cc2)cc1 [Example 47, 2-[4-(trans-methylpropenoate)phenyl]-4-[(4-N-i-propylamino)phenyl]-5-[(4-N-methylamino)phenyl] imidazole]
- EC50 (CEM/VLB1000 [1]): 194 nM
- EC50 (CEM/VLB1000 [2]): 870 nM

Structure (SMILES): CCCN(CCC)c1ccc(-c2[nH]c(-c3ccc(/C=C/C(=O)OC)cc3)nc2-c2ccc(NC)cc2)cc1 [Example 44, 2-[4-(trans-methylpropenoate)phenyl]-4-[(4-N,N-dipropylamino)phenyl]-5-[(4-N-methylamino)phenyl] imidazole]
- EC50 (CEM/VLB1000 [1]): 165 nM
- EC50 (CEM/VLB1000 [2]): 1400 nM

Structure (SMILES): CN(C)c1ccc(-c2nc(-c3ccc(/C=C/C(=O)OC(C)(C)C)cc3)[nH]c2-c2ccc(N(C)C)cc2)cc1 [Example 39, 2-[4-(trans-t-butylpropenoate)phenyl]-4,5-bis[(4-N,N-dimethylamino)phenyl] imidazole]
- EC50 (CEM/VLB1000 [1]): 590 nM
- EC50 (CEM/VLB1000 [2]): 4500 nM

Structure (SMILES): CNc1ccc(-c2nc(-c3ccc(/C=C/C(=O)OC)cc3)[nH]c2-c2ccc(F)cc2)cc1 [Example 53, 2-[4-(trans-methylpropenoate)phenyl]-4-[(4-N-methylamino)phenyl]-5-(4-fluorophenyl) imidazole]
- EC50 (CEM/VLB1000 [1]): 630 nM
- EC50 (CEM/VLB1000 [2]): 6500 nM

Structure (SMILES): COC(=O)/C=C/c1csc(-c2nc(-c3ccc(N(C)C)cc3)c(-c3ccc(N(C)C)cc3)[nH]2)c1 [Example 62, 2-[3-(trans-methylpropenoate)thienyl]-4,5-bis[(4-N,N-dimethylamino)phenyl] imidazole]
- EC50 (CEM/VLB1000 [1]): 320 nM
- EC50 (CEM/VLB1000 [2]): 3000 nM

Structure (SMILES): CCN(CC)c1ccc(-c2[nH]c(-c3ccc(/C=C/C(=O)OC)cc3)nc2-c2ccc(N)cc2)cc1 [Example 52, 2-[4-(trans-methylpropenoate)phenyl]-4-[(4-N,N-diethylamino)phenyl]-5-(4-aminophenyl) imidazole]
- EC50 (CEM/VLB1000 [1]): 275 nM
- EC50 (CEM/VLB1000 [2]): 2600 nM

Structure (SMILES): COC(=O)/C=C/c1ccc(-c2nc(-c3ccc(N(C)C)cc3)c(-c3ccc(N(C)C)cc3)[nH]2)c(F)c1 [Example 60, 2-[2-fluoro-4-(trans-methylpropenoate)phenyl]-4,5-bis(4-N,N-dimethylaminophenyl) imidazole]
- EC50 (CEM/VLB1000 [1]): 613 nM
- EC50 (CEM/VLB1000 [2]): 3000 nM

Structure (SMILES): COc1ccc(/C=C/C(=O)OC(C)C)cc1-c1nc(-c2ccc(N(C)C)cc2)c(-c2ccc(N(C)C)cc2)[nH]1 [Example 64, 2-[2-methoxy-5-(trans-i-propylpropenoate)phenyl]-4,5-bis(4-N,N-dimethylaminophenyl) imidazole]
- EC50 (CEM/VLB1000 [1]): 390 nM
- EC50 (CEM/VLB1000 [2]): 6000 nM

Structure (SMILES): CN(C)c1ccc(-c2nc(-c3ccc(/C=C/C(=O)OCCc4ccccc4)cc3)[nH]c2-c2ccc(N(C)C)cc2)cc1 [Example 68, 2-[4-(trans-phenethylpropenoate)phenyl]-4,5-bis[(4-N,N-dimethylamino)phenyl] imidazole]
- EC50 (CEM/VLB1000 [1]): 1200 nM
- EC50 (CEM/VLB1000 [2]): > 30000 nM

Structure (SMILES): COCCCc1ccc(-c2nc(-c3ccc(N(C)C)cc3)c(-c3ccc(N(C)C)cc3)[nH]2)cc1 [Example 63, 2-[4-(3-methoxypropyl)phenyl]-4,5-bis[(4-N,N-dimethylamino)phenyl] imidazole]
- EC50 (CEM/VLB1000 [1]): 205 nM
- EC50 (CEM/VLB1000 [2]): 1100 nM

Structure (SMILES): CCCCOc1ccc(-c2nc(-c3ccc(N(C)C)cc3)c(-c3ccc(N(C)C)cc3)[nH]2)cc1 [Example 70, 2-[4-butyloxyphenyl]-4,5-bis[(4-N,N-dimethylamino)phenyl] imidazole]
- EC50 (CEM/VLB1000 [1]): 430 nM

Structure (SMILES): COCCOc1ccc(-c2nc(-c3ccc(N(C)C)cc3)c(-c3ccc(N(C)C)cc3)[nH]2)cc1OC [Example 72, 2-[3-methoxy-4-(2-methoxyethoxy)-phenyl]-4,5-bis[(4-N,N-dimethylamino)phenyl] imidazole]
- EC50 (CEM/VLB1000 [1]): 160 nM
